Results as given in publication PMC4738305, “Metabolism and Disposition of Aditoprim in Swine, Broilers, Carp and Rats” (Scientific Reports, 2016).
Like-named read-outs stand apart in the source and are kept apart here.

Tests used:
[1] = Metabolite profiling of ADP in excreta, plasma and bile (LC-v.ARC/MS-IT-TOF); type: in vivo, carp; conditions: for percentage of the individual metabolite compared with the total concentration of ADP-related: within 6 h after dosing; for Average percentage of ADP and its metabolites in total dose: Carp, Excreta, single oral 5 mg/kg b.w. ^3H-ADP
Description: (§1) Animals (4 swine, 6 broilers, 6 carp, and 3 male and 3 female rats) were housed individually in clean, suspended wire-mesh metabolism cages, designed to separate the urine from the feces (carp were raised in individual aquaria). Each animal was weighed and assigned with a permanent identification number. A single dose of ^3 H-ADP (5 mg/kg b. w., 0.1 Ci/g) was administered via the oral gavage. Excreta were collected on ice at the pre-administration, in the period of 6, 12, and 24 h on day 1 d, and afterwards, intermittently in the period of 24 h up to 14 d. The piscine excreta were collected by changing and collecting raised water. The total volume or weight of each sample was measured and homogenized. The total radioactivity levels were determined through LSC for the recovery calculations. After the preparation, the samples were analyzed through LC/MS-IT-TOF with v. ARC radiometric detection (XenoBioticLaboratories, Inc.) for metabolite profiling. The pretreatment samples were used as controls to determine the background radioactivity or the endogenous nondrug-related ions observed within respective matrices or their extracts.
(§2) A total of 36 animals from each species (swine n = 24) were randomly assigned to six equal treatment groups and administered a single daily dose of ^3 H-ADP at 5 mg/kg b. w. (0.1 Ci/g) through oral gavage for 7 consecutive days. All the animals were housed on the basis of their group in the cages or aquaria throughout the whole study period. A group of animals was slaughtered through exsanguination under diethyl ether inhalation of anesthesia in the period of 6 h, 1, 3, 7, 14, and 21 d after the administration. The blood samples were immediately collected into the heparinized tubes and was centrifuged at 1920 × g at 4 °C for 10 min to obtain the plasma. The tissues from the heart, liver, spleen, lung, kidney, craw (broilers), stomach, intestine, fat, skin, muscle, thymus, pancreas, bile, bladder, hair (scale for carp), genital gland, adrenal glands, swim bladder (carp), brain, lymph, and bursa (broilers) were carefully excised and collected. The tissues were thoroughly rinsed with the deionized water to remove the residuary blood, blotted to dryness, and finally to perform the homogenization. In order to avoid cross-contamination the dissecting instruments were washed during the tissue procurements. The blank tissues were collected in order to provide control matrices. The total radioactivity levels in each sample were determined through LSC. The samples extracted from the plasma, bile, and tissues of the liver, kidney, muscle, and fat/skin were analyzed through LC/MS-IT-TOF and v. ARC radiometric detection for metabolite profiling. The blank samples were used as control to determine the background radioactivity or the endogenous nondrug-related ions observed within respective matrices or their extracts.
(§3) For metabolite profiling, the urine and feces samples from each animals were pooled proportionally to the excreted amount in each sampling period from 0 to 6 h, 6 h to 1 d, 1 to 3 d, 3 to 7 d, and 7 to 14 d post-dose, respectively. All samples were fully homogenized before the process. The pre-dose and blank samples served as the controls for determining the background radioactivity or the endogenous, nondrug-related ions observed within respective matrices or their extracts.
(§4) The urine samples (plasma, bile and raised water for carp) was subjected to solid-phase extraction with an Oasis MCX cartridge (3 mL, […]; Waters, Milford, MA, USA) for metabolite purification and enrichment. The pH value was adjusted to 2.8–3.2 by adding 1 M hydrochloric acid (HCl), and 2 mL of the sample was transferred into MCX cartridge, which was preconditioned with 3 mL of methanol and 3 mL of 0.1 mol/L HCl solution. The cartridge was washed with 3 mL of 0.1 mol/L HCl solution and was eluted with 5 mL of NH4OH/methanol (4:96, v:v). The effluent was concentrated to dryness under a stream of nitrogen at 40 °C. […]

[2] = as above; type: in vivo, rats; conditions: for Average percentage of ADP and its metabolites in total dose: Rat, single oral 5 mg/kg b.w. ^3H-ADP; for percentage of the individual metabolite compared with the total concentration of ADP-related: within 6 h after dosing
Description: as §1, §2, §3, §4

[3] = Concentration and elimination of ADP and its metabolites in liver, kidney, muscle, fat/skin after oral ^3H-ADP for 7 d; type: in vivo, swine; conditions: for half-life: pig, po; for concentration at 0.25 d / concentration at 1 d / concentration at 3 d / concentration at 7 d / concentration at 14 d: swine, oral, 5 mg/kg b.w.
Description: as §2
The feces and tissues (2 g) were diluted with a mixture of methanol and chloroform (1:3, v:v; 2 mL/g homogenate). This procedure was carried out in a fume hood for the safety aspects. The pH value was adjusted to 9.0 with NH4OH. The mixture was vortexed and sonicated for 5 min and 10 min, respectively, and finally the samples were centrifuged at 7690 × g for 10 min. The supernatant was aspirated and then transferred into a new centrifuge tube. The obtained pellet was again subjected to the same process of vortex, ultrasonication, extraction, and centrifugation. The combined supernatant was concentrated under a stream of nitrogen in a water bath at 40 °C. The residue was reconstituted with 0.3 mL of methanol–water (1:9, v:v) before the injection into the LC-v. ARC/MS-IT-TOF system for analysis.
ADP and its metabolites in the prepared samples were determined with a v. ARC radiometric detector and a hybrid IT/TOF mass spectrometer connected to the HPLC system (Shimadzu Corp., Kyoto, Japan). The LC system was equipped with a solvent delivery pump (LC-20AD), an auto-sampler (SIL-20AC), a degasser (DGU-20 A 3), a photodiode array detector (SPD-M20A), a communication base module (CBM-20 A), and a column oven (CTO-20AC). The chromatographic separation was achieved by using an Agilent extend-C18 column (2.1 mm × 150 mm, 5 μm) with a gradient mobile phase of A (0.01% ammonia and 5 mM ammonium acetate in water) and B (methanol) at a flow rate of 0.2 mL/min. The column temperature was maintained at 35 °C. Various HPLC methods were performed because of the large number of different metabolites to be analyzed. For the porcine sample, method 1 started at 5% B and increased to 20% B over 35 min, then to 55% B by 60 min, followed by re-equilibration for another 10 min. For the remaining samples, method 2 started at 10% B and increased to 60% B over 30 min, subsequently was maintained at 60% B for an additional 10 min, and then changed to 90% B over 2 min and maintained for 2 min. Afterwards, a re-equilibration step (decreased to 10% B over 1 min and maintained at 10% B for additional 9 min) was followed. For each matrix, more than 98% of the radioactivity injected into the column was eluted during the running time of the gradient program. […]

[4] = swine kidney, after 5 mg/kg b. w. for 7 days, read-out: t1/2 of the individual compound (converted)
[5] = swine liver, after 5 mg/kg b. w. for 7 days, read-out: t1/2 of the individual compound (converted)
[6] = swine muscle, after 5 mg/kg b. w. for 7 days, read-out: t1/2 of the individual compound (converted)
[7] = tissues (liver, kidney, muscle, fat/skin), 5 mg/kg, swine tissues, read-out: t1/2 of the individual compound, range over tissues

| Compound | percentage of the individual metabolite compared with the total concentration of ADP-related ([1]; Carp Bile) [%] | percentage of the individual metabolite compared with the total concentration of ADP-related ([1]; Carp Extra (excreta)) [%] | percentage of the individual metabolite compared with the total concentration of ADP-related ([1]; Carp Plasma) [%] | Average percentage of ADP and its metabolites in total dose [1] [%] | Average percentage of ADP and its metabolites in total dose ([2]; Feces) [%] | Average percentage of ADP and its metabolites in total dose ([2]; Urine) [%] | percentage of the individual metabolite compared with the total concentration of ADP-related ([2]; Rats Feces) [%] | percentage of the individual metabolite compared with the total concentration of ADP-related ([2]; Rats Plasma) [%] | percentage of the individual metabolite compared with the total concentration of ADP-related ([2]; Rats Urine) [%] | half-life [3, 4] [h] | half-life [3, 5] [h] | concentration at 0.25 d ([3]; fat) [ng/g] | concentration at 0.25 d ([3]; kidney) [ng/g] | concentration at 1 d ([3]; kidney) [ng/g] | concentration at 3 d ([3]; kidney) [ng/g] | concentration at 0.25 d ([3]; liver) [ng/g] | concentration at 1 d ([3]; liver) [ng/g] | concentration at 3 d ([3]; liver) [ng/g] | concentration at 0.25 d ([3]; muscle) [ng/g] | concentration at 1 d ([3]; muscle) [ng/g] | also measured |
| --- | --- | --- | --- | --- | --- | --- | --- | --- | --- | --- | --- | --- | --- | --- | --- | --- | --- | --- | --- | --- | --- |
| COc1cc(Cc2cnc(N)nc2N)cc(OC)c1N(C)C [A0, 2,4-Diamino-5-[4-(dimethylamino)-3,5-dimethoxybenzyl] pyrimidine] | 64.7 | 87.5 | 61.7 | 82.4 | 14.0 | 61.3 | 79.4 | 75.0 | 71.2 | 80.9 | 105 | 1270 ± 430 | 19000 ± 8810 | 4160 ± 2000 | 1080 ± 220 | 7600 ± 1040 | 3010 ± 900 | 1320 ± 270 | 1490 ± 390 | 890 ± 220 | level of intact ADP ([1]; carp, single oral 5 mg/kg b. w. (Table S5)): 82.4 % of the oral dose; half-life ([3]; swine fat, after 5 mg/kg b. w. for 7 days, read-out: t1/2 of the individual compound (converted)): 80.9 h; half-life [3, 6]: 38.9 h; half-life [3, 7]: 38.9 to 105 h; share of the sample radioactivity in the detected tissues ([3]; swine liver, kidney, muscle, fat, over the sampling times): more than 42%; concentration at 1 d ([3]; fat): 510 ± 120 ng/g; concentration at 3 d ([3]; fat): 330 ± 70 ng/g; concentration at 7 d ([3]; fat): 150 ± 30 ng/g; concentration at 7 d ([3]; kidney): 360 ± 90 ng/g; concentration at 14 d ([3]; kidney): 110 ± 20 ng/g; concentration at 7 d ([3]; liver): 820 ± 140 ng/g; concentration at 14 d ([3]; liver): 240 ± 50 ng/g; concentration at 3 d ([3]; muscle): 380 ± 90 ng/g; concentration at 7 d ([3]; muscle): 70 ± 10 ng/g |
| CNc1c(OC)cc(Cc2cnc(N)nc2N)cc1OC [A1, N-monodesmethyl-ADP] | 25.5 | 9.9 | 23.9 | 8.9 | 2.7 | 13.8 | 20.4 | 19.0 | 14.7 | 21.8 | 25 | 300 ± 70 | 15400 ± 5300 | 3430 ± 1250 | 160 ± 40 | 4620 ± 850 | 1650 ± 330 | 640 ± 110 | 850 ± 250 | 150 ± 40 | half-life [3, 6]: 17.5 h; half-life [3, 7]: 17.5 to 25 h; concentration at 1 d ([3]; fat): 60 ± 10 ng/g; concentration at 7 d ([3]; kidney): 20 ng/g; concentration at 3 d ([3]; muscle): 50 ± 10 ng/g |
| COc1cc(Cc2cnc(N)nc2N)cc(OC)c1N [A2, N-didesmethyl-ADP] | 9.8 | 2.5 | 14.4 | 2.9 | 0.7 | 1.1 | 0.3 | 6.0 | 2.6 | 10.1 | 23.8 | 70 ± 10 | 6360 ± 1040 | 1300 ± 400 | 20 ± 10 | 2440 ± 480 | 840 ± 110 | 310 ± 80 | 160 ± 40 | 50 ± 10 | half-life ([3]; 5 mg/kg, kidney and liver of swine and rat, read-out: t1/2 of the individual compound, range over tissues): 10.1 to 38.6 h |
